Measurements as given in patent US20230085307A1, “PYRIDAZINONE COMPOUND AND HERBICIDE” (NISSAN CHEMICAL CORPORATION, priority 2019, published 2023).

Legend:
Italian ryegrass [1] = assay: Test Example 4: herbicidal effect by soil treatment (Table 19, symbol K); format: in vivo, Italian ryegrass (Lolium multiflorum); settings: amount of applied herbicide 147 g/ha
Method in brief: (§1)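 Step 1: sow seeds in sterilized diluvial soil, cover ~1.5 cm. Step 2: spray diluted emulsion onto soil surface at predetermined rate. Step 3: greenhouse, 25–30° C, three weeks. Step 4: grade effect on each plant by earlier criteria.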

barnyard grass [2] = assay: Test Example 3: herbicidal effect by foliage application, Wagner pot (Table 18, symbol H); format: in vivo, barnyard grass (Echinochloa crus-galli); settings: amount of applied herbicide 147 g/ha
Method in brief: (§2)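 Plants were sown in alluvial soil held under 0.1–0.5 cm standing water and grown 14 days in a greenhouse at 25–30 °C. An emulsifiable formulation, water-diluted to the set dose, was then sprayed onto the foliage, and effects were scored three weeks later using previously defined criteria.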

lambsquarters [3] = assay: Test Example 5: herbicidal effect by foliage application, plastic box (Table 20, symbol O); format: in vivo, lambsquarters (Chenopodium album); settings: foliage application, 147 g/ha, three weeks after application
Method in brief: (§3)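 Foliar spray test: emulsion formulation diluted in water to a set application rate, sprayed onto 14-day-old plants raised in diluvial soil at 25° C to 30° C under glass. Both herbicidal effect and crop effect rated visually three weeks later.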

windgrass [4] = assay: Test Example 4: herbicidal effect by soil treatment (Table 19, symbol L); format: in vivo, windgrass (Apera spica-venti); settings: amount of applied herbicide 147 g/ha
Method in brief: as §1

false cleavers = assay: Test Example 5: herbicidal effect by foliage application, plastic box (Table 20, symbol Q); format: in vivo, false cleavers (Galium spurium); settings: foliage application, 147 g/ha, three weeks after application
Method in brief: as §3

wild oat [5] = assay: Test Example 4: herbicidal effect by soil treatment (Table 19, symbol I); format: in vivo, wild oat (Avena fatua); settings: amount of applied herbicide 147 g/ha
Method in brief: as §1

wild oat [6] = assay: Test Example 5: herbicidal effect by foliage application, plastic box (Table 20, symbol I); format: in vivo, wild oat (Avena fatua); settings: foliage application, 147 g/ha, three weeks after application
Method in brief: as §3

rice flat sedge = assay: Test Example 3: herbicidal effect by foliage application, Wagner pot (Table 18, symbol E); format: in vivo, rice flat sedge (Cyperus iria); settings: amount of applied herbicide 147 g/ha
Method in brief: as §2

persian speedwell [7] = assay: Test Example 5: herbicidal effect by foliage application, plastic box (Table 20, symbol R); format: in vivo, Persian speedwell (Veronica persica); settings: foliage application, 147 g/ha, three weeks after application
Method in brief: as §3

green foxtail [8] = assay: Test Example 4: herbicidal effect by soil treatment (Table 19, symbol G); format: in vivo, green foxtail (Setaria viridis); settings: amount of applied herbicide 147 g/ha
Method in brief: as §1

lambsquarters [9] = assay: Test Example 4: herbicidal effect by soil treatment (Table 19, symbol O); format: in vivo, lambsquarters (Chenopodium album); settings: amount of applied herbicide 147 g/ha
Method in brief: as §1

Italian ryegrass [10] = assay: Test Example 5: herbicidal effect by foliage application, plastic box (Table 20, symbol K); format: in vivo, Italian ryegrass (Lolium multiflorum); settings: foliage application, 147 g/ha, three weeks after application
Method in brief: as §3

chickweed = assay: Test Example 4: herbicidal effect by soil treatment (Table 19, symbol P); format: in vivo, common chickweed (Stellaria media); settings: amount of applied herbicide 147 g/ha
Method in brief: as §1

Chinese sprangletop = assay: Test Example 3: herbicidal effect by foliage application, Wagner pot (Table 18, symbol D); format: in vivo, chinese sprangletop (Leptochloa chinensis); settings: amount of applied herbicide 147 g/ha
Method in brief: as §2

persian speedwell [11] = assay: Test Example 4: herbicidal effect by soil treatment (Table 19, symbol R); format: in vivo, Persian speedwell (Veronica persica); settings: amount of applied herbicide 147 g/ha
Method in brief: as §1

blackgrass [12] = assay: Test Example 4: herbicidal effect by soil treatment (Table 19, symbol J); format: in vivo, blackgrass (Alopecurus myosuroides); settings: amount of applied herbicide 147 g/ha
Method in brief: as §1

velvetleaf [13] = assay: Test Example 4: herbicidal effect by soil treatment (Table 19, symbol M); format: in vivo, velvetleaf (Abutilon theophrasti); settings: amount of applied herbicide 147 g/ha
Method in brief: as §1

velvetleaf [14] = assay: Test Example 5: herbicidal effect by foliage application, plastic box (Table 20, symbol M); format: in vivo, velvetleaf (Abutilon theophrasti); settings: foliage application, 147 g/ha, three weeks after application
Method in brief: as §3

barnyard grass [15] = assay: Test Example 4: herbicidal effect by soil treatment (Table 19, symbol H); format: in vivo, barnyard grass (Echinochloa crus-galli); settings: amount of applied herbicide 147 g/ha
Method in brief: as §1

windgrass [16] = assay: Test Example 5: herbicidal effect by foliage application, plastic box (Table 20, symbol L); format: in vivo, windgrass (Apera spica-venti); settings: foliage application, 147 g/ha, three weeks after application
Method in brief: as §3

southern crabgrass [17] = assay: Test Example 4: herbicidal effect by soil treatment (Table 19, symbol F); format: in vivo, southern crabgrass (Digitaria ciliaris); settings: amount of applied herbicide 147 g/ha
Method in brief: as §1

barnyard grass [18] = assay: Test Example 5: herbicidal effect by foliage application, plastic box (Table 20, symbol H); format: in vivo, barnyard grass (Echinochloa crus-galli); settings: foliage application, 147 g/ha, three weeks after application
Method in brief: as §3

southern crabgrass [19] = assay: Test Example 5: herbicidal effect by foliage application, plastic box (Table 20, symbol F); format: in vivo, southern crabgrass (Digitaria ciliaris); settings: foliage application, 147 g/ha, three weeks after application
Method in brief: as §3

redroot pigweed = assay: Test Example 4: herbicidal effect by soil treatment (Table 19, symbol N); format: in vivo, redroot pigweed (Amaranthus retroflexus); settings: amount of applied herbicide 147 g/ha
Method in brief: as §1

green foxtail [20] = assay: Test Example 5: herbicidal effect by foliage application, plastic box (Table 20, symbol G); format: in vivo, green foxtail (Setaria viridis); settings: foliage application, 147 g/ha, three weeks after application
Method in brief: as §3

blackgrass [21] = assay: Test Example 5: herbicidal effect by foliage application, plastic box (Table 20, symbol J); format: in vivo, blackgrass (Alopecurus myosuroides); settings: foliage application, 147 g/ha, three weeks after application
Method in brief: as §3

COc1ccccc1-c1oc2ccc(C)cc2c1-c1c(O)c(C)nn(C)c1=O [9-006]
K: Italian ryegrass, herbicidal effect grade (Italian ryegrass [1]): 0 (Herbicidal rate of 5% or less (almost no effect)) | Herbicidal effect on H (barnyard grass), foliage application (barnyard grass [2]): 1 (Herbicidal rate of 5% or more and less than 20%) | herbicidal effect on lambsquarters (O) (lambsquarters [3]): 0 (Herbicidal rate of 5% or less (almost no effect)) | L: windgrass, herbicidal effect grade (windgrass [4]): 0 (Herbicidal rate of 5% or less (almost no effect)) | herbicidal effect on false cleavers (Q) (false cleavers): 3 (Herbicidal rate of 40% or more and less than 70%) | I: wild oat, herbicidal effect grade (wild oat [5]): 0 (Herbicidal rate of 5% or less (almost no effect)) | herbicidal effect on wild oat (I) (wild oat [6]): 0 (Herbicidal rate of 5% or less (almost no effect)) | Herbicidal effect on E (rice flat sedge), foliage application (rice flat sedge): 2 (Herbicidal rate of 20% or more and less than 40%) | herbicidal effect on persian speedwell (R) (persian speedwell [7]): 0 (Herbicidal rate of 5% or less (almost no effect)) | G: green foxtail, herbicidal effect grade (green foxtail [8]): 0 (Herbicidal rate of 5% or less (almost no effect)) | O: lambsquarters, herbicidal effect grade (lambsquarters [9]): 0 (Herbicidal rate of 5% or less (almost no effect)) | herbicidal effect on Italian ryegrass (K) (Italian ryegrass [10]): 0 (Herbicidal rate of 5% or less (almost no effect)) | P: chickweed, herbicidal effect grade (chickweed): 0 (Herbicidal rate of 5% or less (almost no effect)) | Herbicidal effect on D (Chinese sprangletop), foliage application (Chinese sprangletop): 0 (Herbicidal rate of 5% or less (almost no effect)) | R: persian speedwell, herbicidal effect grade (persian speedwell [11]): 0 (Herbicidal rate of 5% or less (almost no effect)) | J: blackgrass, herbicidal effect grade (blackgrass [12]): 0 (Herbicidal rate of 5% or less (almost no effect)) | M: velvetleaf, herbicidal effect grade (velvetleaf [13]): 0 (Herbicidal rate of 5% or less (almost no effect)) | herbicidal effect on velvetleaf (M) (velvetleaf [14]): 2 (Herbicidal rate of 20% or more and less than 40%) | H: barnyard grass, herbicidal effect grade (barnyard grass [15]): 0 (Herbicidal rate of 5% or less (almost no effect)) | herbicidal effect on windgrass (L) (windgrass [16]): 0 (Herbicidal rate of 5% or less (almost no effect)) | F: southern crabgrass, herbicidal effect grade (southern crabgrass [17]): 0 (Herbicidal rate of 5% or less (almost no effect)) | herbicidal effect on barnyard grass (H) (barnyard grass [18]): 0 (Herbicidal rate of 5% or less (almost no effect)) | herbicidal effect on southern crabgrass (F) (southern crabgrass [19]): 0 (Herbicidal rate of 5% or less (almost no effect)) | N: redroot pigweed, herbicidal effect grade (redroot pigweed): 3 (Herbicidal rate of 40% or more and less than 70%) | herbicidal effect on green foxtail (G) (green foxtail [20]): 0 (Herbicidal rate of 5% or less (almost no effect)) | herbicidal effect on blackgrass (J) (blackgrass [21]): 0 (Herbicidal rate of 5% or less (almost no effect))
